The experiment has as its target T1, YbfA (Escherichia coli, UniProt P0AAU2).
T1 construct: recombinant 6xHis-tagged YbfA (pET28a), ybfA gene cloned from E. coli W3110
The experiment in a line: isothermal titration calorimetry (ITC), […] °C. It counts as binding. A general note: ITC needs no label: the signal is the heat of the interaction.

What is called Kd is the free concentration of one partner at which half of the binding sites on the other are occupied at equilibrium, for simple one-to-one binding. Higher therefore signals lower affinity.

T1 sequence (P0AAU2 22-68): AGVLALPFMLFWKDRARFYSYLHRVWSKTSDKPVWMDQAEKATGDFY

For `OCCc1ccc(O)cc1` [tyrosol], the dissociation constant Kd was determined as 4.65 ± 0.11 µM.
